# Results as given in ChEMBL document CHEMBL1201862, “PubChem BioAssay data set” (2004).
#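 Grown in 96-well plates, cells were treated for 48 hours with each compound at five concentrations. Insufficient inhibition: endpoint recorded as highest concentration tested. GI50 = concentration required for 50% inhibition of growth.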 Active and inactive are the calls of the source. No stated cut-off is given here; in the data, active = GI50 up to about 1.1 µM and inactive = higher.
# Experiments:
# Assay in all cases: NCI anticancer screen, dose series, 48 h
# [1] = test system: 786-0
# [2] = test system: A498
# [3] = test system: A549
# [4] = test system: CAKI-1
# [5] = test system: CCRF-CEM
# [6] = test system: COLO 205
# [7] = test system: DLD-1
# [8] = test system: DMS-114
# [9] = test system: DMS-273
# [10] = test system: EKVX
# [11] = test system: HCC 2998
# [12] = test system: HCT-116
# [13] = test system: HCT-15
# [14] = test system: HL-60
# [15] = test system: HOP-62
# [16] = test system: HT-29
# [17] = test system: IGROV-1
# [18] = test system: K562
# [19] = test system: KM-20L2
# [20] = test system: KM12
# [21] = test system: LOX IMVI
# [22] = test system: LXFL 529
# [23] = test system: M14
# [24] = test system: M19-MEL
# [25] = test system: MOLT-4
# [26] = test system: Malme-3M
# [27] = test system: NCI-H23
# [28] = test system: NCI-H460
# [29] = test system: NCI-H522
# [30] = test system: OVCAR-3
# [31] = test system: OVCAR-4
# [32] = test system: OVCAR-5
# [33] = test system: OVCAR-8
# [34] = test system: RPMI-8226
# [35] = test system: SF-268
# [36] = test system: SF-295
# [37] = test system: SF-539
# [38] = test system: SK-MEL-28
# [39] = test system: SK-MEL-2
# [40] = test system: SK-MEL-5
# [41] = test system: SK-OV-3
# [42] = test system: SN12C
# [43] = test system: SNB-19
# [44] = test system: SNB-75
# [45] = test system: SNB-78
# [46] = test system: SW-620
# [47] = test system: TK-10
# [48] = test system: U-251
# [49] = test system: UACC-257
# [50] = test system: UACC-62
# [51] = test system: UO-31
# [52] = test system: XF498
smiles,measurement,setting,value
CCOc1ccccc1/N=N/c1ccc2oc(=O)c(C(C)=O)cc2c1,GI50,[1],54.6 µM (inactive)
same,GI50,[2],> 100 µM (inactive)
same,GI50,[3],> 100 µM (inactive)
same,GI50,[4],> 100 µM (inactive)
same,GI50,[5],> 100 µM (inactive)
same,GI50,[6],> 100 µM (inactive)
same,GI50,[7],> 100 µM (inactive)
same,GI50,[8],> 100 µM (inactive)
same,GI50,[9],> 100 µM (inactive)
same,GI50,[10],45.9 µM (inactive)
same,GI50,[11],> 100 µM (inactive)
same,GI50,[12],> 100 µM (inactive)
same,GI50,[13],> 100 µM
same,GI50,[14],> 100 µM (inactive)
same,GI50,[15],> 100 µM (inactive)
same,GI50,[16],> 100 µM (inactive)
same,GI50,[17],> 100 µM (inactive)
same,GI50,[18],> 100 µM (inactive)
same,GI50,[19],> 100 µM (inactive)
same,GI50,[20],> 100 µM (inactive)
same,GI50,[21],> 100 µM (inactive)
same,GI50,[22],> 100 µM (inactive)
same,GI50,[23],> 100 µM (inactive)
same,GI50,[24],> 100 µM (inactive)
same,GI50,[25],> 100 µM (inactive)
same,GI50,[26],> 100 µM (inactive)
same,GI50,[27],> 100 µM (inactive)
same,GI50,[28],> 10 µM (inactive)
same,GI50,[29],58.9 µM (inactive)
same,GI50,[30],> 100 µM (inactive)
same,GI50,[31],> 100 µM (inactive)
same,GI50,[32],> 100 µM (inactive)
same,GI50,[33],> 100 µM (inactive)
same,GI50,[34],> 100 µM (inactive)
same,GI50,[35],> 100 µM (inactive)
same,GI50,[36],41.4 µM (inactive)
same,GI50,[37],> 100 µM (inactive)
same,GI50,[38],> 100 µM (inactive)
same,GI50,[39],71 µM (inactive)
same,GI50,[40],> 100 µM (inactive)
same,GI50,[41],> 100 µM (inactive)
same,GI50,[42],> 100 µM (inactive)
same,GI50,[43],55.5 µM (inactive)
same,GI50,[44],16 µM (inactive)
same,GI50,[45],24.4 µM (inactive)
same,GI50,[46],> 100 µM (inactive)
same,GI50,[47],30.5 µM (inactive)
same,GI50,[48],43.7 µM (inactive)
same,GI50,[49],> 100 µM (inactive)
same,GI50,[50],> 100 µM (inactive)
same,GI50,[51],> 100 µM (inactive)
same,GI50,[52],30.1 µM (inactive)
